Test results taken from patent US20060135800A1, “2-Methylene-19,21-dinor-1alpha-hydroxy-bishomopregnacalciferol” (Wisconsin Alumni Research Foundation, priority 2004, published 2006).
“Also recorded” adds a separate entry of the source.

Assays:
[1] = target: T1, full-length recombinant rat vitamin D receptor (Rattus norvegicus, UniProt P13053); experiment: Vitamin D receptor binding, competition with [3H]-1,25-(OH)2-D3
T1 construct: Full-length recombinant rat receptor was expressed in E. coli; His tag (C); made in house; host or cells: E. coli BL21(DE3) Codon Plus RIL
T1 sequence (P13053 1-423): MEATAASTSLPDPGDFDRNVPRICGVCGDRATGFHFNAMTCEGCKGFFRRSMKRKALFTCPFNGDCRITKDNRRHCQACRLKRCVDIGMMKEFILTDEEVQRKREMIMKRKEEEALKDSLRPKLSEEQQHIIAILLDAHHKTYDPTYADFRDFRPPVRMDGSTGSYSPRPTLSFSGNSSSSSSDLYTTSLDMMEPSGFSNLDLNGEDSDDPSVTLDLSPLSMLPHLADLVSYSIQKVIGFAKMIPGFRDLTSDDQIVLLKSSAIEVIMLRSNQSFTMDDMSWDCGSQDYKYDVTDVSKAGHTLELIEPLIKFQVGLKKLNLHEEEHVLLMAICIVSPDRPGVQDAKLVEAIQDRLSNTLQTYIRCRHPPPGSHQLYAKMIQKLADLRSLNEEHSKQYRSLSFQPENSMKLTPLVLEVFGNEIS
Description: Full-length recombinant rat receptor was expressed in E. coli BL21(DE3) Codon Plus RIL cells and purified to homogeneity using two different column chromatography systems. The first system was a nickel affinity resin that utilizes the C-terminal histidine tag on this protein. The protein that was eluted from this resin was further purified using ion exchange chromatography (S-Sepharose Fast Flow). Aliquots of the purified protein were quick frozen in liquid nitrogen and stored at −80° C. until use. For use in binding assays, the protein was diluted in TEDK50 (50 mM Tris, 1.5 mM EDTA, pH 7.4, 5 mM DTT, 150 mM KCl) with 0.1% Chaps detergent. The receptor protein and ligand concentration was optimized such that no more than 20% of the added radiolabeled ligand was bound to the receptor.
Unlabeled ligands were dissolved in ethanol and the concentrations determined using UV spectrophotometry (1,25(OH)2D3: molar extinction coefficient=18,200 and λmax=265 nm; Analogs: molar extinction coefficient=42,000 and λmax=252 nm). Radiolabeled ligand (^3H-1,25(OH)2D3, ˜159 Ci/mmole) was added in ethanol at a final concentration of 1 nM.
Radiolabeled and unlabeled ligands were added to 100 mcl of the diluted protein at a final ethanol concentration of ≦10%, mixed and incubated overnight on ice to reach binding equilibrium. […] Total binding was determined from the tubes containing only radiolabeled ligand.

[2] = system: HL-60 cells; experiment: HL-60 differentiation (nitro blue tetrazolium reduction); type: cell-based, human
Description: The study drugs were dissolved in ethanol and the concentrations determined using UV spectrophotometry. Serial dilutions were prepared so that a range of drug concentrations could be tested without changing the final concentration of ethanol (≦0.2%) present in the cell cultures.
Human promyelocytic leukemia (HL60) cells were grown in RPMI-1640 medium containing 10% fetal bovine serum. The cells were incubated at 37° C. in the presence of 5% CO2.
HL60 cells were plated at 1.2×10^5 cells/ml. Eighteen hours after plating, cells in duplicate were treated with drug. Four days later, the cells were harvested and a nitro blue tetrazolium reduction assay was performed (Collins et al., 1979; J. Exp. Med. 149:969-974). The percentage of differentiated cells was determined by counting a total of 200 cells and recording the number that contained intracellular black-blue formazan deposits. Verification of differentiation to monocytic cells was determined by measuring phagocytic activity (data not shown).

[3] = system: 24-hydroxylase (24Ohase) gene promoter in ROS 17/2.8 (bone) cells; experiment: In vitro transcription assay (24-hydroxylase promoter luciferase reporter); type: cell-based; settings: stably transfected Ros17/2.8 (bone) cells; FIG. 3
Description: Transcription activity was measured in ROS 17/2.8 (bone) cells that were stably transfected with a 24-hydroxylase (24Ohase) gene promoter upstream of a luciferase reporter gene (Arbour et al., 1998). Cells were given a range of doses. Sixteen hours after dosing the cells were harvested and luciferase activities were measured using a luminometer. RLU=relative luciferase units.

[4] = Intestinal calcium transport (everted gut sac method); type: in vivo, rat; settings: rats, ip; even at 100 times the dose of 1α,25-dihydroxyvitamin D3; FIG. 5
Description: (§1) Male, weanling Sprague-Dawley rats were placed on Diet 11 (0.47% Ca) diet +AEK for one week followed by Diet 11 (0.02% Ca) +AEK for 3 weeks. The rats were then switched to a diet containing 0.47% Ca for one week followed by two weeks on a diet containing 0.02% Ca. Dose administration began during the last week on 0.02% calcium diet. Four consecutive ip doses were given approximately 24 hours apart. Twenty-four hours after the last dose, blood was collected from the severed neck and the concentration of serum calcium determined as a measure of bone calcium mobilization. The first 10 cm of the intestine was also collected for intestinal calcium transport analysis using the everted gut sac method.

[5] = Bone calcium mobilization (serum calcium); type: in vivo, rat; settings: rats, ip; even at 100 times the dose of 1α,25-dihydroxyvitamin D3; FIG. 4
Description: as §1

[6] = PTH suppression in adult rats; type: in vivo, rat; settings: normal rats, ip, 7 consecutive days; FIG. 7
Description: (§2) Adult, female Sprague-Dawley rats were obtained from Harlan (Madison, Wis.).
(§3) Animals were randomly assigned to treatment groups (5 animals/group). All doses were administered intraperitoneally in 100 microliters of propylene glycol. Four to seven consecutive doses were given approximately 24 hours apart. Dosing was initiated after the animals had been allowed to acclimate for at least one week.
(§4) Both control and test articles were administered by intraperitoneal injection in 100 microliters for 4-7 consecutive days spaced approximately 24 hours apart. 1,25(OH)2D3 was given for 4 consecutive days, whereas, the test drugs were given for 7 consecutive days.
Twenty-four hours after the final dose, blood was collected from the tail artery and the concentration of bioactive serum PTH was measured using the rat BioActive Intact PTH ELISA Kit from Immutopics, Inc. (San Clemente, Calif.).

[7] = Serum calcium in adult rats (hypercalcemia); type: in vivo, rat; settings: ip, FIG. 6
Description: as §2, §3, §4
Twenty-four hours after the final dose, approximately 1 ml of blood was collected from the tail artery of each experimental animal. The blood was allowed to coagulate at room temperature and then centrifuged at 3000×g for 15 minutes. The serum was transferred to a polypropylene tube and stored frozen at −20° C. The level of calcium was determined by diluting the serum into 0.1% lanthum chloride and measuring the absorbance on an atomic absorption spectrophotometer (Perkin Elmer Model 3110, Shelton, Conn.).

C=C1[C@H](O)CC(=C/C=C2\CCC[C@]3(C)C(CCC)CC[C@@H]23)C[C@H]1O (stereo in doubt) [2-methylene-19,21-dinor-1α-hydroxy-bishomopregnacalciferol]
binding to the recombinant vitamin D receptor, times less active than 1α,25-dihydroxyvitamin D3 ([1]; relative to 1α,25-dihydroxyvitamin D3, FIG. 1): about 5 times | binding to vitamin D receptors (in words) ([1]; summary statement): relatively high binding | inducing differentiation of HL-60 cells, times less active than 1α,25-dihydroxyvitamin D3 ([2]; relative to 1α,25-dihydroxyvitamin D3, FIG. 2): about 15 times | cell differentiation activity (in words) ([2]; summary statement): relatively high cell differentiation activity | stimulating transcription of a reporter gene [3]: active | calcemic activity measured by intestinal calcium transport [4]: very low intestinal calcium transport activity; also recorded: no calcemic activity | calcemic activity measured by bone calcium mobilization [5]: very low ability to mobilize calcium from bone; also recorded: no calcemic activity | suppressing parathyroid hormone levels [6]: significant activity | raising serum calcium concentrations [7]: absence of raising serum calcium concentrations
